Results on three molecules are retold here after paper PMC9804470, “A Formylglycine‐Peptide for the Site‐Directed Identification of Phosphotyrosine‐Mimetic Fragments” (Chemistry (Weinheim an Der Bergstrasse, Germany), 2022).

*1 amine or outer side, *2 acyl side, *3 side chain or, on linkers, in order; H or OH if unused. [ ]: non-standard residue; d: D form. F2Pmp = N[C@@H](Cc1ccc(C(F)(F)P(=O)(O)O)cc1)C(=O)O; fGly = 2-formylglycine, O=C[C@H](N[*:1])C(=O)[*:2]; Dap = NC[C@H](N)C(=O)O

In data set [1] the test system is HGF‐induced tyrosine phosphorylation of ERK 1/2 in HeLa cells. Briefly: Western blot of p-ERK in HGF-stimulated HeLa cells. It counts as cell-based. Particulars: 1 h treatment, Western blot, DMSO control. On the procedure: Cellular experiments: HeLa cells were cultivated in DMEM buffer with 10 % FCS in 75 cm^2 cell culture flasks at 37 °C, 5 % CO2. At confluency of about 75 %, cells were seeded in a density of 250,000 cells/mL in 6‐well plates and incubated for 24 h. Subsequently, medium was removed and replaced by DMEM buffer with 0.1 % BSA (1 mL per well) and incubated for another 16 h. Hepatocyte growth factor (HGF, 20 ng/well) and test compounds in different final concentrations (1 μL, in DMSO) were added. Control wells received the same amount of DMSO (final concentration 0.1 %) or no addition. Plates were incubated for 1 h, then washed with cold PBS and shaken with lysis buffer (mPer reagent ThermoScientific # 78501 with 1 mM NaF, 2 mM Na3VO4, 25× protease inhibitor) for 5 min. Cell lysates were transferred to Eppendorf cups and centrifuged at 4 °C with 10,000 g for 10 min. […] The blot was incubated with anti‐phospo‐ERK as primary antibody (Cell Signaling # 9106, dilution 1 : 2000 in TBS‐Tween/ 2 % BSA) overnight at 4 °C, washed 3×5 min with TBS‐Tween, and incubated with anti‐mouse IgG‐hrp as secondary antibody (Santa Cruz # sc2031, 1 : 6000 in TBS‐ Tween/ 2 % BSA, RT, 1.5 h). The blot was again washed 3×5 min with TBS‐Tween and imaged with the ECL system (ThermoScientific # 34080) at Syngene PXi Imager. From the same lysis sample, under the same conditions, ERK 1/2 and β‐tubulin were blotted. For β‐tubulin, the antibody incubation time was adjusted to 2 h at RT.
On the technique in general: A western blot detects proteins with antibodies after separation by electrophoresis.

Data set [2] relates to mammary gland tumors. The following applies: endogeneous cancer model; cited from earlier work. An excerpt:
(§1) Our next goal was to validate the three phosphotyrosine mimetics F1, F2, and F4 identified by fragment ligation screening as substructures of heterocyclic and cell‐penetrating SHP2‐inhibitors. The potent SHP2‐specific inhibitor GS‐493 was selected as a reference compound. […] In combination with a kinase inhibitor, GS‐493 ...

Data set [3] relates to pancreas cancer. Particulars: in combination with a kinase inhibitor; cited from earlier work.
Description: as §1

Data set [4] has as its system SHP2 signaling. The following applies: cited from earlier work.
Description: as §1

Data set [5] is described as follows: Solubility of peptide 3. The class given is physicochemical. The following applies: in water, buffer, and DMSO; qualitative.
The target in data set [6] is T1, catalytic domain of human PTP1B (Homo sapiens, UniProt P18031).
T1 construct: catalytic domain of human PTP1B (amino acids 1–321); His7 (N, cleaved yes); made in house; host or cells: E. coli Rosetta (DE3)
T1 sequence (P18031 1-321): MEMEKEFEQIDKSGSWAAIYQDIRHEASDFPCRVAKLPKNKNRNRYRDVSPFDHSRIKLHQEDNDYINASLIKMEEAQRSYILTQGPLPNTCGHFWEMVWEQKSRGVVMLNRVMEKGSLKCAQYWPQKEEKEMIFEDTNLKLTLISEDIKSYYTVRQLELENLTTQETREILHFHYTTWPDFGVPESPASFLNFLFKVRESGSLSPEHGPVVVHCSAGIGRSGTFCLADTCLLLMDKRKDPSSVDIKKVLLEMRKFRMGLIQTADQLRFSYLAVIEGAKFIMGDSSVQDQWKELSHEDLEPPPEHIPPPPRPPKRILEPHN
Briefly: Enzyme activity assay of PTP1B with fluorogenic substrate DiFMUP. The class given is biochemical. The following applies: SD; read-out: KI PTP1B. Here is the method:
Protein Expression and purification: DNA encoding the catalytic domain of human PTP1B (amino acids 1–321) was subcloned into the pQLinkH vector. The gene encoding the N‐terminal His7‐tagged protein was over‐expressed at 17 °C in E. coli Rosetta (DE3). […] The His7‐tag was cleaved with tobacco etch virus protease at 20 °C prior to the gel‐filtration step. The catalytic domain of human SHP2 (amino acids 225–541) was purified from E. coli B21 (DE3). The overexpressed protein was fused to an N‐terminal His10‐tag. Cells were harvested and resuspended in 25 mM Tris‐HCl (pH=7.5), 50 mM NaCl, 1 % (v/v) Triton X‐100, 10 % (v/v) glycerol, 1 mM DTT. After cell lysis, debris was removed by centrifugation at 12,000 rpm for 30 min. The supernatant was filtered prior to affinity purification with Ni‐NTA agarose (Qiagen). The slurry was washed with 50 mM Tris‐HCl (pH=8.0), 500 mM NaCl supplemented with 25 mM imidazole. Reasonably pure protein was eluted with 200–300 mM imidazole. The purification was completed by size‐exclusion chromatography with a Superdex 75 16/600 column (GE Healthcare) equilibrated with 20 mM HEPES‐NaOH (pH=7.5), 50 mM NaCl, 1 mM DTT.
Enzyme activity assays of SHP2 and PTP1B: The catalytic activity of SHP2 catalytic domain and PTP1B were monitored using the fluorogenic substrate DiFMUP (6,8‐difluoro‐4‐methylumbelliferyl phosphate). Phosphatase reactions were performed at room temperature in 384‐well black plate, clear flat bottom, low flange, non‐binding surface (Corning, Cat# 3766) using a final volume of 20 μL and the following assay buffer conditions: 50 mM MOPS, pH=6.5, 200 mM NaCl, 50 μM TCEP, 0.03 % Tween‐20 (freshly added prior to each measurement). Test compounds were dissolved in DMSO or buffer at stock concentrations of 50, 20 or 10 mM and serially diluted. Enzyme (5 nM PTP1B or 2.5 nM SHP2 catalytic domain) and different concentrations of the tested compounds were incubated in buffer for 30–60 min at room temperature. Measurements were performed with a final concentration of 2.5 % DMSO unless stated otherwise at 37 °C and were performed in triplicate. Enzymatic reactions were started by adding DiFMUP (Invitrogen, cat# D6567) concentrations matching the experimentally determined KM values of the enzymes of 67 μM (PTP1B) or 72 μM (SHP2). Samples were excited at a wavelength of 360 nm and emitted fluorescence was recorded at 460 for 10 min using a microplate reader (infinite M1000 Pro, Tecan). Initial slope of fluorescence was determined in triplicate and IC50 values were calculated with GraphPad Prism 5. Determined IC50 values were converted into the corresponding KI values applying the Cheng Prusoff equation KI =IC50 /(1+[S]/KM ).

The target in data set [7] is T2, peptide 16 (Homo sapiens, UniProt P00533, not fully specified (residue 5); also: formylglycine reductively aminated with aryl amine F4, place not in chain).
T2 chain: Ac-DADEYL-NH2
Briefly: DiFMUP enzyme inhibition assay.

Data set [8] concerns the target T3, peptide 2 Ac-DADE(PDFM-F)L-NH2 (Homo sapiens, UniProt P00533).
T3 chain: Ac-DADE[F2Pmp]L-NH2
Briefly: DiFMUP enzyme inhibition assay.

Data set [9] has as its target T4, peptide 17 (Homo sapiens, UniProt P00533, not fully specified (residue 5); also: reduced Knoevenagel product of formylglycine with barbituric acid, place not in chain).
T4 chain: Ac-DADEYL-NH2
Briefly: DiFMUP enzyme inhibition assay.

Data set [10] concerns the target T5, peptide 15 (Homo sapiens, UniProt P00533, not fully specified (residue 5); also: formylglycine reductively aminated with 4-amino-phenyl-acetic acid F1, place not in chain).
T5 chain: Ac-DADEYL-NH2
Briefly: DiFMUP enzyme inhibition assay.

Data set [11] deals with T6, peptide 18 (Homo sapiens, UniProt P00533).
T6 chain: Ac-DADE[Dap](4‑trifluoromethylsulfonylamido‑phenyl)L-NH2
Briefly: DiFMUP enzyme inhibition assay.

Data set [12] concerns the target T7, formylglycine peptide 3 (Homo sapiens, UniProt P00533).
T7 chain: Ac-DADE[fGly]L-NH2
Briefly: DiFMUP enzyme inhibition assay.

One may read the Ki as a dissociation constant, usually derived from enzyme kinetics or from competition with a known ligand.

As for `O=C1/C(=N\Nc2ccc(S(=O)(=O)O)cc2)C(c2ccc([N+](=O)[O-])cc2)=NN1c1ccc([N+](=O)[O-])cc1` [GS‐493], the “Effect on HGF‐induced tyrosine phosphorylation of ERK 1/2” value in data set [1] is “decreased”. Further, in data set [2], the “Effect on development of mammary gland tumors” value was “able to block the development of mammary gland tumors”. Besides, the “Effect on pancreas cancer” value in [3] was “able to suppress pancreas cancer”. For the same molecule, the “Block of SHP2 signaling in cancer cells and animal models” value in data set [4] is on record as “able to block SHP2 signaling”.
For `CC(=O)N[C@@H](CC(=O)O)C(=O)N[C@@H](C)C(=O)N[C@@H](CC(=O)O)C(=O)N[C@@H](CCC(=O)O)C(=O)NC(C=O)C(=O)N[C@@H](CC(C)C)C(N)=O` (stereo partly drawn) [Compound 3, N‐Acetyl‐L‐aspartyl‐L‐alaninyl‐L‐aspartyl‐L‐glutamyl‐2‐formylglycyl‐L‐leucinyl‐amide], in data set [5], the Solubility entry was “highly soluble”. In data set [6], the Ki is 484 ± 30 µM.

B1: PTP1B 1-321 (protein)
chain: T1 sequence (P18031 1-321)
For the molecule B1, the Ki in data set [7] was found to be 213 µM; in data set [8], 1.4 µM; in data set [9], 123 µM; in data set [10], 138 µM; in [11], 202 µM; in [12], 484 µM.
